The text below walks through data of PubChem BioAssay AID493003 (Sanford-Burnham Center for Chemical Genomics, 2010).

This assay concerns S. cerevisiae tim10-1 mutant growth, luminescence. As to the kind of experiment: growth inhibitors of tim10-1 mutant yeast, dose response, luminescence, S. cerevisiae, uHTS hits (AID 493003).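 Further: yeast growth measured after about 22 hours at 25 °C.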
In the case of `O=C(NNC(=S)Nc1cccc(C(F)(F)F)c1)c1ccc(Cl)cc1Cl`, the half-maximal inhibitory concentration (IC50) was 8.5 µM. The same measure for `CN(CCCC(=O)O)c1ccc(N=Nc2ccc([N+](=O)[O-])cc2)cc1`: 19.5 µM; for `Cc1cccc(/C=N/n2c(COc3ccccc3)n[nH]c2=S)c1`: 36.6 µM. The value for `COc1ccc(-c2noc(C3CCCN(C(=O)CCc4ccccc4)C3)n2)cc1` (configuration not stated) was 17.9 µM. The same measure for `CC(C)C(=O)Nc1ccc(-c2nc3ccccc3c(=O)o2)cc1`: 36.5 µM. Regarding `CCCc1ccc(-c2c(C)sc(N)c2C#N)cc1`, the IC50 is 19.2 µM. The same measure for `O=C1CC(N2CC=C(c3ccccc3)CC2)C(=O)N1c1ccc(F)cc1` (configuration not stated): 14.7 µM.

On to `Nc1cccc(Nc2nc(OC(C(F)(F)F)C(F)(F)F)nc(OC(C(F)(F)F)C(F)(F)F)n2)c1`, for which the IC50 was 39.6 µM. Consider `CC(=O)c1ccc(NC(=S)NC(C)c2ccc(Cl)cc2Cl)cc1` (configuration not stated), for which the IC50 was 13.2 µM. The value for `N/C(Cc1ccc(Cl)cc1)=N\OC(=O)c1ccc2ccccc2c1` was 0.25 µM; that for `O=C(O/N=C(/c1ccccc1)c1ccncc1)c1ccccc1[N+](=O)[O-]` was 29 µM. In the case of `O=C(/C=C/c1c[nH]c2ccccc12)c1ccccc1`, the IC50 was 78.2 µM. In the case of `Cc1ccc(NC(=O)c2ccc(Cl)c(N3C(=O)C=CC3=O)c2)cc1`, the IC50 is 8.63 µM. The value for `COc1ccc(/C=N/n2c(=S)n(C)c3ccccc32)cc1OC` was 36.1 µM; that for `COc1ccc(-c2csc(CCn3nc(C)cc3C)n2)cc1` was 30.1 µM. On to `CCOC(=O)c1cc(-c2cccs2)nc2c1c(C)nn2-c1ccccn1`, for which the IC50 was 11 µM.

As to `Cc1ccc(F)c(NC(=O)c2c(-c3ccccc3)noc2C)c1`, the half-inhibitory concentration (IC50) is 58.6 µM.

A word on the IC50: it is the midpoint of a concentration-inhibition curve.
